A melting point compilation (Tetko et al.; mined from patent text by program, amines drawn as free bases though some values may be those of a salt)

Point of comparison: `CC(=O)OC1CSC(Oc2cccc3ccoc23)C(OC(C)=O)C1OC(C)=O` (stereo not drawn), melting point 152 °C. Against it:
- CNC(=O)Cc1c(C)n(-c2ccnc3cc(Cl)ccc23)c2ccc(OC)cc12 — higher, 168 to 169 °C
- CCOC(=O)C1(O)CC(c2ccncc2)=NNC1=O (stereo not drawn) — higher, 160 to 163 °C
- CC(=O)OC1(C(C)=O)CCC2C3CCC4=CC(=O)CCC4(C)C3(Br)C(F)CC21C (stereo not drawn) — higher, 180 to 182 °C
- O=C(Nc1cc(S(=O)(=O)N(CCO)CCO)sc1Cl)c1cnn2c(C(F)F)cc(-c3ccc(C(F)(F)F)cc3)nc12 — higher, 216 °C
- COC(=O)c1cc(N)c(C)s1 — lower, 90 to 91 °C
- Cc1ccc(C)n1CCNC(N)=O — lower, 139 to 141 °C
- COC(=O)c1ccc(Br)c(CBr)c1 — lower, 100 to 101 °C
- COc1ccnc(C(=O)N[C@H]2COC(=O)[C@H](CC(=O)OC(C)(C)C)[C@@H](OC(=O)C(C)C)[C@H](C)OC2=O)c1O — higher, 192 to 194 °C
- CCc1c(CCC(=O)O)c[nH]c1C=O — lower, 128 to 134 °C
- CC(C)OP(=O)(OCN1C(=O)c2c(C(C)C)cc(OCC(=O)OCc3ccccc3)cc2S1(=O)=O)OC(C)C — lower, 93 to 94 °C
- Nc1cc(C(F)(F)F)ccc1N(N)C=O — lower, 121 to 122 °C
- COC(=O)c1ccc(O)c(C=NO)c1 — higher, 155 °C
- Fc1cc(Br)ccc1OCc1ccccc1 — lower, 64.4 to 66.3 °C
- OC(CNc1ccnc2cc(Cl)ccc12)c1ccccc1 (stereo not drawn) — higher, 221 to 222 °C
- Nc1c2c(nc3ccccc13)-c1ccc(Cl)cc1CC2 — higher, 205 to 208 °C
- COc1cc2c(Nc3ccc(Cl)cc3F)ncnc2cc1OCc1ccnc(C#N)c1 — higher, 209 to 213 °C
- O=C1CC(c2cccc(-n3ccnc3)c2)=Nc2ccc(C3CC3)cc2N1 — higher, 198 to 200 °C
- CNc1nc(-c2ccc(F)cc2)c(I)c(C(C)C)n1 — higher, 195 to 196 °C
- Clc1nccnc1OCCOc1cccc(Br)c1 — lower, 57 to 58 °C
- Cc1cc(C(=O)/C=C/C(=O)O)c(C)o1 — lower, 144 to 147 °C
- CCOCC1OC(n2cc(C(F)(F)F)c(=O)[nH]c2=O)CC1O (stereo not drawn) — higher, 188 to 190 °C
- Cc1nccn1CCC(=O)NC(C)c1ccc(Cl)cc1 (stereo not drawn) — lower, 135 to 137 °C
- CC1(C)CC(=O)c2c(C(=O)Nc3ccsc3)c[nH]c2C1 — higher, 217 to 218 °C
- CCOc1cc(=O)oc2cc(C)ccc12 — lower, 142 to 143 °C
- O=C(O)c1cn(C2CC2)c2c(F)c(N3CC4CC3CN4Cc3ccc([N+](=O)[O-])cc3)c(F)cc2c1=O (stereo not drawn) — higher, 177 to 182 °C
- CN(C)C(=O)NC1CCCc2sccc21 (stereo not drawn) — lower, 117 to 120 °C
- C=C(C)COc1ccc2c(=O)c(C)c(-c3ccccc3)oc2c1C(=O)C=Cc1cccc(OC)c1 — lower, 131 to 134 °C
- O=C(O)Cc1sc2nc3ncccc3n2c1-c1ccc(Cl)cc1 — higher, 250 to 252 °C
- COC(=O)CCCc1cc2nc(OC)ccc2n1S(=O)(=O)c1ccccc1 — lower, 113 to 114 °C
- CNC(=O)c1cc(C(=O)O)c2cc(Cc3ccc(F)cc3)cnc2c1O — higher, 203 to 205 °C
- CCOC(=O)c1c(S(C)(=O)=O)c(N=O)c2ccccn12 — lower, 143 to 144 °C
- Cc1ccc(S(=O)(=O)N2C[C@@H]3C[C@H]2CN3C)cc1 — lower, 87 to 88 °C
- O=C(Nc1ccccn1)C1=C(O)c2sc3ccccc3c2S(=O)(=O)N1 — higher, 240 to 242 °C
- COc1c(OCc2ccc(-c3ccccc3S(=O)(=O)Nc3onc(C)c3C)c(COCCF)c2)cc(C)nc1C — lower, 90 to 95 °C
- CCOC1(OC)CC(C)=C(CCc2cccc(OC)c2)C=C1OC (stereo not drawn) — higher, 178 to 180 °C
- Nc1ccc(Sc2ccccn2)cn1 — lower, 121 °C
- COC(=O)C(N)CSCc1ccccc1 (stereo not drawn) — lower, 84 to 87 °C
- CCOCc1nc2c(N)nc3cccnc3c2n1NC(C)C — not separable, 150 to 152 °C
- COc1ccc(OCC(=O)O)c(C(Nc2ccc(C(=N)N)cc2)C(=O)O)c1 (racemic) — higher, 213 °C
- O=S(=O)(c1ccc(Cl)cc1)N1CCCC1c1ccc(F)c(Cl)c1 (racemic) — lower, 119 °C
- Cc1ccc2scc(CCNc3ncnc4c3ncn4C3OC(CO)C(O)C3O)c2c1 (stereo not drawn) — higher, 158 to 160 °C
- CN1CCC(NC2c3ccccc3Oc3ccccc32)CC1 — lower, 96.5 to 98 °C
- Fc1ccccc1-n1c(CN2CCOCC2)nnc1-c1ccc(-c2ccccc2)cc1 — lower, 129 to 131 °C
- CCSC1Oc2ccccc2C(=S)C1(C#N)C(N)=O (stereo not drawn) — higher, 165 to 168 °C
- Nc1cccc(COc2cccc3c2CN(C2CCC(=O)NC2=O)C3=O)c1 (stereo not drawn) — lower, 109 to 113 °C
- CC(C)(C)OC(=O)N1CC(CCl)c2c1cc(O)c1ncccc21 (stereo not drawn) — lower, 148 to 149 °C
- CCCN(CCC)CCCC1CCN(CCNC(=O)N2c3cc(C)ccc3C(=O)Nc3cccnc32)CC1 — higher, 195 °C
- CCOC(=O)c1cnc2c(NC(=O)c3c(Cl)cccc3Cl)cccc2c1CBr — higher, 199 °C
- CCC(O)(CC)CC/C=C(\C)c1ccc(COc2ccc(CO)c(CO)c2)s1 — lower, 100 to 102 °C
- CCc1nc(OC)c(NC(=O)N2CCN(c3cccc(O)c3)CC2)cc1C — higher, 168 to 170 °C
- CC(=O)OC(c1cccnc1)c1c(O)c(=O)ccn1C (stereo not drawn) — higher, 153 to 154 °C
- COCCOc1c(C(=O)CC(=O)C(=O)O)ccc(Cc2ccccc2)c1OC — lower, 83 to 85 °C
- CC(C)CCOc1cccc2c1C(=O)CC(c1nnn[nH]1)O2 (stereo not drawn) — lower, 134 to 137 °C
- O=c1c2cc(F)c(N3CCCC3)nc2n(Cc2ccccc2)c(=O)n1O — higher, 219 to 220 °C
- COc1cc2c(cc1[N+](=O)[O-])NC(=O)CN(CC1CC1)C2 — higher, 178 °C
- CS(=O)(=O)c1ccc(/C=C2/C(=O)CCc3ccccc32)cc1 — not separable, 152 to 153 °C
- CN(C)CCc1cn(C)c2c(F)ccc(OCc3ccccc3)c12 — lower, 60 to 62 °C
